The assay addresses TNFα (Homo sapiens, UniProt P01375). Nature of the assay: TNFα FP Competitive Binding Assay. The note with it: 20 nM TNFα trimer, 1 nM OregonGreen488 probe, read-out: TNF IC50. The procedure:
TNFα FP Competitive Binding Assay
Prepare 1× Assay Buffer (Water with 47 mil HEPES, 47 mM NaCl, 0.9 mM EDTA, 0.0071% Triton X-100) by adding 25 mL of 1 M HEPES, 5 mL of 5 M NaCl, 1 mL of 0.5 M EDTA, and 375 μL of a 10% Triton X-100 stock to a fresh 500 mL bottle of water.
Prepare fresh Assay Mixture containing 20 nM TNFα trimer (60 nM protein) and 1 nM 2′,7′-difluoro-3′,6′-dihydroxy-N-(2-(2-(2-((4-(isoquinolin-8-yl)-3-(4-(isoquinolin-8-yl)phenethoxy)benzyl)oxy)ethoxy)ethoxy)ethyl)-3-oxo-3H- spiro[isobenzofuran-1,9′-xanthene]-5-carboxamide probe in 1× Assay Buffer.
Top concentration of compounds, 10 mM in DMSO, dispensed in rows A-O in columns 1 and 13. Compounds are serially diluted 1:3 with DMSO in columns 2-12 or 14-24 using a 16-channel Matrix pipettor. Plates stored at −20° C.
Top concentration, 5 mM in DMSO, of compounds placed in rows A-O in columns 1 and 13.
Compounds are serially diluted 1:3 with DMSO in columns 2-12 or 14-24. Compound solutions are dispensed into replicate assay plates at 410 nL per well. Plates stored at 4° C.
TNFα FP Competitive Binding Assay Protocol • 1. Compound plates warmed to rt. • 2. Fresh Assay Mixture is prepared. • 3. Assay Mixture (20 μL) is dispensed each well of 384 assay plates using a Thermo Multidrop Combi or 16-channel Matrix pipettor. If Manual 12-point 1:3 Dilution Plates are to be tested, Assay Mix is dispensed into empty plates. Discovery Preps 12-point 1:3 Dilution Plates already contain 410 nL compound solution in DMSO. • 4. For Manual 12-point 1:3 Dilution Plates, 0.7 μL is manually transferred using a 16-channel Matrix pipettor to replicate assay plates containing 20 μL Assay Mixture for a final top compound concentration of […] (3.4% DMSO). • 5. For Discovery Preps 12-point 1:3 Dilution Plates, 20 μL Assay Mixture added the 410 nL compound solution already in the plates yields a final top compound concentration of 100 μM (2.0% DMSO). • 6. Background subtraction controls are wells P1-P8 containing only Assay Buffer. The low % inhibition controls are wells P9-P16 containing only Assay Mix. The high % inhibition are wells P17-P24 containing only 1 nM 2′,7′-difluoro-3′,6′-dihydroxy-N-(2-(2-(2-((4-(isoquinolin-8-yl)-3-(4-(isoquinolin-8-yl)phenethoxy)benzyl)oxy)ethoxy)ethoxy)ethyl)-3-oxo-3H-spiro[isobenzofuran-1,9′-xanthene]-5-carboxamide probe in 1× Assay Buffer. • 7. Plates are incubated at rt for 18-24 h in […] (CO2 is off). • 8. Prior to reading the assay, the plates are placed in a dark cabinet to equilibrate at rt for one hour. • 9. Background-subtracted fluorescence polarization (mP) is measured using a PerkinElmer Envision plate reader. • 10. Raw data is entered into Assay Explorer and dose-response curves are generated using a variable slope curve.
TNFα, sequence (P01375 77-233 limits assumed): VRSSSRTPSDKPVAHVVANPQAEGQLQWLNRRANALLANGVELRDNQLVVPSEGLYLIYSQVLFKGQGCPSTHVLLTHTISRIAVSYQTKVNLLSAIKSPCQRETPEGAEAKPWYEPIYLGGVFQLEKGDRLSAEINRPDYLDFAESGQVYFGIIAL
In the case of `O=c1c2ccc(-c3cnc(N4CCO[C@@H](CO)C4)nc3)cc2n2n1CC[C@@H]2c1ccccc1OC(F)F` (single isomer, unassigned) [Example 1.8], the concentration for half-maximal inhibition (IC50) was under 1 µM.
To `O=C1c2ccc(-c3cnc(N4CCOCC4)nc3)cc2[C@@H]2[C@H](c3ccccc3OC(F)F)CCN12` (single isomer, unassigned) [Example 9.1] belongs over 10 µM; to `C[C@@H]1CN(c2ncc(-c3ccc4c(=O)n5n(c4c3)[C@@H](c3ccccc3OC(F)F)CC5)cn2)CCN1C(=O)CO` (single isomer, unassigned) [Example 6.4], under 1 µM.
To `Cc1ccc(OC(F)F)c([C@@H]2CCn3c(=O)c4ccc(-c5cnc(N6CCN7C(=O)NC[C@H]7C6)nc5)cc4n32)c1` (single isomer, unassigned) [Example 14.1] belongs under 1 µM; to `Cc1ccc(OC(F)F)c([C@@H]2CCn3c(=O)c4ccc(-c5cnc(C(C)(C)O)nc5)cc4n32)c1` [Example 14.2], under 1 µM; to `O=c1c2ccc(-c3cnc(N4CCO[C@@H](CO)C4)nc3)cc2n2n1CC[C@H]2c1ccccc1OC(F)F` (single isomer, unassigned) [Example 1.9], under 1 µM.
Turning to `CC(=O)N1CCN(c2ncc(-c3ccc4c(=O)n5n(c4c3)[C@@H](c3ccccc3OC(F)F)CC5)cn2)C[C@H]1C` (single isomer, unassigned) [Example 6.3], the IC50 is under 1 µM.
As for `COC[C@H]1CCCN1c1ncc(-c2ccc3c(=O)n4n(c3c2)[C@H](c2ccccc2OC(F)F)CC4)cn1` (single isomer, unassigned) [Example 1.4], the figure is 1 to 10 µM; as for `CC(C)(O)c1ncc(-c2cc3c(cc2F)c(=O)n2n3[C@H](c3ccccc3OC(F)F)CC2)cn1` (single isomer, unassigned) [Example 12.2], under 1 µM.
As for `O=c1c2ccc(-c3cnc(N4CCC(O)CC4)nc3)cc2n2n1CCCC2c1ccccc1OC(F)F` (centres unmarked) [Example 7.2, 6-(2-(difluoromethoxy)phenyl)-3-(2-(4-hydroxypiperidin-1-yl)pyrimidin-5-yl)-8,9-dihydro-6H-pyridazino[1,2-a]indazol-11(7H)-one], the figure is 1 to 10 µM; as for `O=C(O)C1CCN(c2ncc(-c3ccc4c(=O)n5n(c4c3)C(c3ccccc3OC(F)F)CC5)cn2)CC1` (centres unmarked) [Example 1.3, 1-(5-(3-(2-(difluoromethoxy)phenyl)-9-oxo-1,2,3,9-tetrahydropyrazolo[1,2-a]indazol-6-yl)pyrimidin-2-yl)piperidine-4-carboxylic acid], 1 to 10 µM.
As for `O=c1c2ccc(-c3cnc(N4CCO[C@H](CO)C4)nc3)cc2n2n1CC[C@@H]2c1ccccc1OC(F)F` (single isomer, unassigned) [Example 3.1], the figure is under 1 µM; as for `O=C1NC[C@H]2CN(c3ncc(-c4ccc5c(c4)[C@H]4[C@@H](c6ccccc6OC(F)F)CCN4C5=O)cn3)CCN12` (single isomer, unassigned) [Example 11.2], under 1 µM; as for `Cc1ccc(OC(F)F)c([C@@H]2CCn3c(=O)c4cc(F)c(-c5cnc(C(C)(C)O)nc5)cc4n32)c1` (single isomer, unassigned) [Example 13.2], under 1 µM.
As for `O=c1c2ccc(-c3cnc(N4CCOCC4)nc3)cc2n2n1CCCC2c1ccccc1OC(F)F` (centres unmarked) [Example 7.1, 6-(2-(difluoromethoxy)phenyl)-3-(2-morpholinopyrimidin-5-yl)-8,9-dihydro-6H-pyridazino[1,2-a]indazol-11(7H)-one], the IC50 was under 1 µM.
To `O=c1c2ccc(-c3cnc(N4CCOCC4)nc3)cc2n2n1CC[C@H]2c1ccccc1OC(F)F` (single isomer, unassigned) [Example 1.2] belongs under 1 µM; to `O=C1NC[C@@H]2CN(c3ncc(-c4ccc5c(=O)n6n(c5c4)[C@@H](c4ccccc4OC(F)F)CC6)cn3)CCN12` (single isomer, unassigned) [Example 6.2], under 1 µM.
To `COc1ccc(CO)cc1C1CCn2c(=O)c3ccc(-c4cnc(N5CCOCC5)nc4)cc3n21` (centres unmarked) [Example 19, 3-(5-(Hydroxymethyl)-2-methoxyphenyl)-6-(2-morpholinopyrimidin-5-yl)-2,3-dihydropyrazolo[1,2-a]indazol-9(1H)-one] belongs 1 to 10 µM; to `COC[C@H]1CCCN1c1ncc(-c2ccc3c(c2)[C@H]2[C@@H](c4ccccc4OC(F)F)CCN2C3=O)cn1` (single isomer, unassigned) [Example 10.4], over 10 µM; to `CC(C)(O)c1ncc(-c2ccc3c(c2)[C@H]2[C@@H](c4ccccc4OC(F)F)CCN2C3=O)cn1` (single isomer, unassigned) [Example 10.2], 1 to 10 µM.
As for `O=C1C[C@H](CNc2ncc(-c3ccc4c(=O)n5n(c4c3)[C@H](c3ccccc3OC(F)F)CC5)cn2)CN1` (single isomer, unassigned) [Example 4.6], the figure is 1 to 10 µM; as for `O=C1c2ccc(-c3cnc(N4CCOCC4)nc3)cc2[C@H]2[C@@H](c3ccccc3OC(F)F)CCN12` (single isomer, unassigned) [Example 9.2], under 1 µM; as for `Cc1ccc(OC(F)F)c([C@H]2CCn3c(=O)c4cc(F)c(-c5cnc(C(C)(C)O)nc5)cc4n32)c1` (single isomer, unassigned) [Example 13.1], under 1 µM.
Regarding `O=c1c2ccc(-c3cnc(N4CCOCC4)nc3)cc2n2n1CCC2c1ccccc1` (centres unmarked) [Example 8.2, 6-(2-morpholinopyrimidin-5-yl)-3-phenyl-2,3-dihydropyrazolo[1,2-a]indazol-9(1H)-one], the IC50 was 1 to 10 µM.
With `O=C1NC[C@@H]2CN(c3ncc(-c4ccc5c(=O)n6n(c5c4)[C@H](c4ccccc4OC(F)F)CC6)cn3)CCN12` (single isomer, unassigned) [Example 5.2], the 50% inhibitory concentration (IC50) was under 1 µM.
To `Cc1ccc(OC(F)F)c([C@H]2CCn3c(=O)c4ccc(-c5cnc(N6CCN7C(=O)NC[C@H]7C6)nc5)cc4n32)c1` (single isomer, unassigned) [Example 15.1] belongs under 1 µM; to `CC(C)n1nccc1C1CCn2c(=O)c3ccc(-c4cnc(N5CCOCC5)nc4)cc3n21` (centres unmarked) [Example 8.5, 3-(1-isopropyl-1H-pyrazol-5-yl)-6-(2-morpholinopyrimidin-5-yl)-2,3-dihydropyrazolo[1,2-a]indazol-9(1H)-one], over 10 µM.
As for `O=c1c2ccc(-c3cnc(N4CCC(O)CC4)nc3)cc2n2n1CCC2c1ccccc1OC(F)F` (centres unmarked) [Example 4.2, 3-(2-(difluoromethoxy)phenyl)-6-(2-(4-hydroxypiperidin-1-yl)pyrimidin-5-yl)-2,3-dihydropyrazolo[1,2-c]indazol-9(1H)-one], the figure is under 1 µM; as for `COC[C@H]1CCCN1c1ncc(-c2ccc3c(c2)[C@@H]2[C@H](c4ccccc4OC(F)F)CCN2C3=O)cn1` (single isomer, unassigned) [Example 10.3], 1 to 10 µM; as for `Cc1ccc(OC(F)F)c([C@H]2CCn3c(=O)c4ccc(-c5cnc(C(C)(C)O)nc5)cc4n32)c1` (single isomer, unassigned) [Example 15.2], under 1 µM.
To `O=c1c2ccc(-c3cnc(N4CCC5(CC4)CC(O)C5)nc3)cc2n2n1CC[C@@H]2c1ccccc1OC(F)F` (single isomer, unassigned) [Example 4.7] belongs under 1 µM; to `CC(C)(O)c1ncc(-c2cc3c(cc2F)c(=O)n2n3[C@@H](c3ccccc3OC(F)F)CC2)cn1` (single isomer, unassigned) [Example 12.1], under 1 µM.

For the origin of these results see US10273238B2, “Indazolones as modulators of TNF signaling” (AbbVie Inc., priority 2015, dated 2019).
